One data set concerns IL-1α. Kind of data set: IL-1α release ELISA on SLS-irritated reconstructed human epidermis. It is filed as cell-based. The note with it: positive control SLS 0.25% only. On the procedure:
The assay was performed in two replicates.
In this study IL-1α was determined in the culture medium of treated and untreated epidermis, using a direct ELIS assay (enzyme-linked immuno-absorbent assay). The colorimetric signal is directly proportional to the amount of cytokine in the culture medium. The samples are read at 450 nm. The detection limit is less than 10 pg/ml.
Cytokine concentration is determined using a standard curve. The inhibition of IL-1α release was determined as: % of IL-1α inhibition: 100−(pg/ml IL−1α released from irritated; samples/pg/ml IL−1α positive control)*100 [formula]
(ELISA stands for enzyme-linked immunosorbent assay.)

Data set [1] has as its system reconstructed human epidermis. The following applies: 24 h.
Method: The assay included a prime MTT assay at the end of the incubation: cell survival assay using the reconstructed in vitro 3D artificial human epidermis to assess the cytotoxic potential of the sample.
The in vitro test systems used consist of an artificial three-dimensional system of the human epidermis. A reconstructed model of artificial human skin was prepared comprising normal human epidermal keratinocytes, which was grown as an integrated three-dimensional cell culture model, perfectly mimicking human skin in vitro.
The epidermis was pre-treated for 60 minutes with 0.25% SLS and was obtained in order to induce the synthesis and release of IL-1α. Later 30 µl of the formulation object of the invention was applied on two portions of the epidermis in two replicates, and the exposure was carried out for 24 hours at 37°C, 5% C02. […]
The epidermal units are treated with 1 mg of MD (3-4,5-dimethyl-thiazol-2-yl)-2,5-diphenyl-tetrazolium bromide) solution for 3 hours at 37°C. The solution is then removed and replaced with isopropanol, with a further 2 hours of incubation at room temperature; 2 aliquots of each sample are transferred to a 96-well plate for reading. The absorbance is read at the 570 nm wavelength with a colorimeter (Tecan Sunrise remote model) provided with a microplate reader. […]

For the molecule `CCCCCCCCCCCCOS(=O)(=O)[O-].[Na+]` [SLS, sodium lauryl sulfate], the IL-1α pg/ml average with IL-1α (6h) is 79.17 pg/mL; in the data set on IL-1α (24h), 233.86 pg/mL. Moreover, the “% Average cell viability (ds)” value in data set [1] was 65.79 (0.45) %.

For the origin of these results see patent publication EP4003298B1 (Offhealth S.p.A., priority 2019, dated 2021).
